In one test the target is Axl (Homo sapiens (Human), UniProt P30530). Put plainly: Kinase panel Z'-LYTE/Adapta SelectScreen and IC50 determination. The test is classed as biochemical. The conditions noted are these: for Percentage inhibition AXL: 100 nM in 1% DMSO; for IC50: 10 concentrations between 100 nM and 0.00495 nM. As to the method: FIG. 2: […] The compounds are screened in DMSO at 1% final. The kinases were diluted in a concentrated concentration twice in kinase buffer. All the ATP solutions were diluted in a 4-fold concentrated working concentration (50 mM HEPES pH 7.5, 0.01% BRIJ-35, 10 mM MgCl2, 1 mM EGTA). […] The inhibitory activity of the compounds on a panel of kinases including, inter alia, AXL and FLT3 was evaluated by Thermo Fisher Scientific using Z′-LYTE® and Adapta® Select Screen technology. The fluorescence-based biochemical test uses coupled enzymes and is based on the difference in sensitivity of the phosphorylated and non-phosphorylated peptides to proteolytic cleavage. The peptide substrate is labeled with 2 fluorophores—one at each end—allowing fluorescence transfer (FRET). […] The Axl or FLT3 kinases were diluted at a two-fold concentration in kinase buffer. All the ATP solutions are diluted in a 4-fold working concentration (50 mM HEPES PH 7.5, 0.01% BRIJ-35, 10 mM MgCl2, 1 mM EGTA).

The test system of test [1] is SARS-COV-2 virus, BetaCoV/France/IDF0371/2020. Put plainly: Anti-SARS-COV-2 activity in VeroE6 cells. The test is classed as cell-based. The conditions noted are these: MOI=0.01, 24 hours, qRT-PCR; for infection of the VeroE6 cells by the SARS-COV-2 virus: 1.25 μM; for IC50: Vero E6 cells. How it is done: FIG. 7: Anti-SARS-COV-2 activity of compounds 1, 2, 3, 10 and 14 determined in the VeroE6 line. The cells were preincubated for 1 hour with compounds at a concentration of 1.25 μM, then infected with the viral strain BetaCoV/France/IDF0371/2020 (MOI=0.01). The cells were kept in culture for 24 hours in the presence of the compound. The residual viral replication is measured by quantification of the viral RNA in the cell culture by qRT-PCR. The control condition is obtained by incubation of cells in the presence of the dilution solvent DMSO (0). The values are averages of triplicates+standard deviation.
(§1) The inhibitory activity of the compounds of the invention on the infection by SARS-COV-2 was evaluated in vitro by infection of three relevant lines for the study of this pathogen: the green monkey line VeroE6 (immortalized kidney epithelium, ATCC #CRL-1586), the A549-ACE2 line produced by transfection of the ACE2 receptor in the A549 line (pulmonary epithelial carcinoma; ATCC #CCL-185), commercial primary bronchial epithelium cells (Mucilair Epithelix).
(§2) The infection tests are carried out by preincubating 4×10^4 VeroE6 or A549-ACE2 cells, cultivated in a 96-well plate, with the indicated concentrations of compounds for 1 hour. The cells are cultivated in a 5% CO2 atmosphere in a Dulbecco's modified Eagle's medium (DMEM) comprising 2% calf serum and 1% penicillin/streptomycin. The cells were then exposed to the SARS-COV-2 virus, BetaCoV/France/IDF0371/2020 (MOI=0.01) for 2 hours in the presence of the compounds before elimination of the innoculum, washing and culturing the cells in the presence of the compounds. 24 h after the viral challenge, the infection is quantified by amplification of the viral RNA by qRT-PCR using the Luna Universal One-Step RT-PCR kit. The values (DCT) are normalized by the GAPDH mRNA. The values represented are averages of triplicates+standard deviation. The control conditions were carried out by incubating the cells in the presence of DMSO, the solvent used for the solubilization of the compounds tested. The volumes of DMSO used under these conditions correspond to the volumes provided by the compounds under the test conditions.
IC50 compounds 1, 2 and 3 were determined on the VeroE6 and A549-ACE2 cells using the software Graphpad Prism.
Background: In qPCR the cycle at which signal appears reflects the starting amount.

The next test deals with RPS6KA1 (RSX1) (Homo sapiens (Human), UniProt Q15418). Put plainly: Kinase panel Z'-LYTE/Adapta SelectScreen. The test is classed as biochemical. The conditions noted are these: 100 nM in 1% DMSO. How it is done: (§3) The inhibitory activity of the compounds on a panel of kinases including, inter alia, AXL and FLT3 was evaluated by Thermo Fisher Scientific using Z′-LYTE® and Adapta® Select Screen technology.
(§4) The fluorescence-based biochemical test uses coupled enzymes and is based on the difference in sensitivity of the phosphorylated and non-phosphorylated peptides to proteolytic cleavage. The peptide substrate is labeled with 2 fluorophores—one at each end—allowing fluorescence transfer (FRET).
(§5) Compounds 1, 2 and 3 are tested in wells at the final concentration of 100 nM in 1% DMSO.

The next test addresses ZAP70 (Homo sapiens (Human), UniProt P43403). Put plainly: Kinase panel Z'-LYTE/Adapta SelectScreen. The test is classed as biochemical. The conditions noted are these: 100 nM in 1% DMSO. How it is done: as §3, §4, §5
The target of the next test is MET (cMet) (Homo sapiens (Human), UniProt P08581). The test is described as follows: Kinase panel Z'-LYTE/Adapta SelectScreen. Type of test: biochemical. The conditions noted are these: 100 nM in 1% DMSO. As to the method: as §3, §4, §5
Another test concerns the target YES1 (Homo sapiens (Human), UniProt P07947). Put plainly: Kinase panel Z'-LYTE/Adapta SelectScreen. The test is classed as biochemical. The conditions noted are these: 100 nM in 1% DMSO. As to the method: as §3, §4, §5
A further test deals with LCK (Homo sapiens (Human), UniProt P06239). The test is described as follows: Kinase panel Z'-LYTE/Adapta SelectScreen. The conditions noted are these: 100 nM in 1% DMSO. The test is classed as biochemical. How it is done:
as §3, §4, §5

In a further test the target is FGFR2 (Homo sapiens (Human), UniProt P21802). Put plainly: Kinase panel Z'-LYTE/Adapta SelectScreen. The test is classed as biochemical. The conditions noted are these: 100 nM in 1% DMSO. As to the method: as §3, §4, §5
The test system of the next test is SARS-COV-2. The test is described as follows: Summary of activity on the SARS-COV-2 infectious models. Type of test: cell-based. The conditions noted are these: summary table. How it is done: as §1, §2
The next test has as its target FLT3 (Homo sapiens (Human), UniProt P36888). Put plainly: IC50 determination on kinase FLT3 (SelectScreen). Type of test: biochemical. The conditions noted are these: 10 concentrations between 100 nM and 0.00495 nM. How it is done: FIG. 2: Determination of the IC50 of compounds 1, 2 and 3 with respect to the inhibition of the kinase Axl and of the kinase FLT3. 10 concentrations of the compound were prepared by serial dilutions. The compounds are screened in DMSO at 1% final. The kinases were diluted in a concentrated concentration twice in kinase buffer. All the ATP solutions were diluted in a 4-fold concentrated working concentration (50 mM HEPES pH 7.5, 0.01% BRIJ-35, 10 mM MgCl2, 1 mM EGTA). Each compound was incubated at 10 concentrations between 100 nM and 0.00495 nM in order to calculate the IC50. The IC50 are indicated: a) results of compound 1; b) results of compound 2; c) results of compound 3.
as §3, §4
To calculate the IC50 inhibition of Axl and FLT3 by the compounds of the invention, 10 concentrations of each compound 1, 2 and 3 were prepared by 1/3 serial dilutions from the starting concentration. The Axl or FLT3 kinases were diluted at a two-fold concentration in kinase buffer. All the ATP solutions are diluted in a 4-fold working concentration (50 mM HEPES PH 7.5, 0.01% BRIJ-35, 10 mM MgCl2, 1 mM EGTA).
Each compound is incubated at 10 concentrations between 100 nM and 0.00495 nM in order to calculate the IC50.

Each structure is given as a SMILES string.

Chain of YES1 (P07947 whole entry): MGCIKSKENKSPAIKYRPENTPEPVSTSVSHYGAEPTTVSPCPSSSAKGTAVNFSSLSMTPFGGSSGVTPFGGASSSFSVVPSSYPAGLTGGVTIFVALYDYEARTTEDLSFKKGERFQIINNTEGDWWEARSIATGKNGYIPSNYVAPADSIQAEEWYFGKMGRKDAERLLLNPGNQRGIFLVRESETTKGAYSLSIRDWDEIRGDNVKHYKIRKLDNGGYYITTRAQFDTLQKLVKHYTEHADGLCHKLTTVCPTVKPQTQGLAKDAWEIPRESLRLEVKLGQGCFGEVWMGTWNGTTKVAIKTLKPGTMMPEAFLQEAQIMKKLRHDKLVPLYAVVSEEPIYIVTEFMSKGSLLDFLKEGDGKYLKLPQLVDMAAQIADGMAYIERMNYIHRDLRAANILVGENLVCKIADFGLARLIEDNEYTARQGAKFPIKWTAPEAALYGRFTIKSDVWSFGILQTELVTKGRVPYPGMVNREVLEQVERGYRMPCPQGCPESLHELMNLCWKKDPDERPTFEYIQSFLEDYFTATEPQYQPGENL
Chain of RPS6KA1 (RSX1) (Q15418 whole entry): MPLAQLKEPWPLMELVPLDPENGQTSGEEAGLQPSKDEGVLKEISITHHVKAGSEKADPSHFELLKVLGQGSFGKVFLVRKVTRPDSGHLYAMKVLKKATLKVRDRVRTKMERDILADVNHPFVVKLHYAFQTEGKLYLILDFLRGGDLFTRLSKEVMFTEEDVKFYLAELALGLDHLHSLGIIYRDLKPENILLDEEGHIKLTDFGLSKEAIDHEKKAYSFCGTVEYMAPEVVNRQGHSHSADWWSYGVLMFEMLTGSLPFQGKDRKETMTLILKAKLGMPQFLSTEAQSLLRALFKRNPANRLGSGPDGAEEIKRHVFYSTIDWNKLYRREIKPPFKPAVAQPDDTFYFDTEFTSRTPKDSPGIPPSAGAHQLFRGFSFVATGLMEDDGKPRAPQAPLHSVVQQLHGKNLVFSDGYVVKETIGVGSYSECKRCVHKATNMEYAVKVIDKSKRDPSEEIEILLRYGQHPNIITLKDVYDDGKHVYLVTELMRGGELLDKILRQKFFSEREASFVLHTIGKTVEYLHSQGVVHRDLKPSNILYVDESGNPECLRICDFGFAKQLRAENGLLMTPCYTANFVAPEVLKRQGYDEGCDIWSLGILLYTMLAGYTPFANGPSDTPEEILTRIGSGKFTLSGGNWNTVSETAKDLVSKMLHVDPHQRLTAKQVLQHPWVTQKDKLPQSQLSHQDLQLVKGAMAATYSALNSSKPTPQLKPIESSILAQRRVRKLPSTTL
Chain of LCK (P06239 whole entry): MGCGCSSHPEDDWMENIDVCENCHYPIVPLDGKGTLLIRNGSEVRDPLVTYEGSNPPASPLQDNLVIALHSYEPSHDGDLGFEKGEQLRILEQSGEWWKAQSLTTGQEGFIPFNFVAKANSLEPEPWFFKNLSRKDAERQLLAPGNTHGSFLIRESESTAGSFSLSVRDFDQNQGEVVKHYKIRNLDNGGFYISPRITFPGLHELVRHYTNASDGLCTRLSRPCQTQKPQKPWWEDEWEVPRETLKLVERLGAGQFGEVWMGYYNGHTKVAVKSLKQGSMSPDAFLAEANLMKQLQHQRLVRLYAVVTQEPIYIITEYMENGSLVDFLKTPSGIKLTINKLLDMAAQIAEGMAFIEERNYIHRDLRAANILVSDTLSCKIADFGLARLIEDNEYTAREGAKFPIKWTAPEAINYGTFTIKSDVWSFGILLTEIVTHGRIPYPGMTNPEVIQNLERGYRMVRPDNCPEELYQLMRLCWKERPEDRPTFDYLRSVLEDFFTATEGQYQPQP
Chain of MET (cMet) (P08581 25-1390): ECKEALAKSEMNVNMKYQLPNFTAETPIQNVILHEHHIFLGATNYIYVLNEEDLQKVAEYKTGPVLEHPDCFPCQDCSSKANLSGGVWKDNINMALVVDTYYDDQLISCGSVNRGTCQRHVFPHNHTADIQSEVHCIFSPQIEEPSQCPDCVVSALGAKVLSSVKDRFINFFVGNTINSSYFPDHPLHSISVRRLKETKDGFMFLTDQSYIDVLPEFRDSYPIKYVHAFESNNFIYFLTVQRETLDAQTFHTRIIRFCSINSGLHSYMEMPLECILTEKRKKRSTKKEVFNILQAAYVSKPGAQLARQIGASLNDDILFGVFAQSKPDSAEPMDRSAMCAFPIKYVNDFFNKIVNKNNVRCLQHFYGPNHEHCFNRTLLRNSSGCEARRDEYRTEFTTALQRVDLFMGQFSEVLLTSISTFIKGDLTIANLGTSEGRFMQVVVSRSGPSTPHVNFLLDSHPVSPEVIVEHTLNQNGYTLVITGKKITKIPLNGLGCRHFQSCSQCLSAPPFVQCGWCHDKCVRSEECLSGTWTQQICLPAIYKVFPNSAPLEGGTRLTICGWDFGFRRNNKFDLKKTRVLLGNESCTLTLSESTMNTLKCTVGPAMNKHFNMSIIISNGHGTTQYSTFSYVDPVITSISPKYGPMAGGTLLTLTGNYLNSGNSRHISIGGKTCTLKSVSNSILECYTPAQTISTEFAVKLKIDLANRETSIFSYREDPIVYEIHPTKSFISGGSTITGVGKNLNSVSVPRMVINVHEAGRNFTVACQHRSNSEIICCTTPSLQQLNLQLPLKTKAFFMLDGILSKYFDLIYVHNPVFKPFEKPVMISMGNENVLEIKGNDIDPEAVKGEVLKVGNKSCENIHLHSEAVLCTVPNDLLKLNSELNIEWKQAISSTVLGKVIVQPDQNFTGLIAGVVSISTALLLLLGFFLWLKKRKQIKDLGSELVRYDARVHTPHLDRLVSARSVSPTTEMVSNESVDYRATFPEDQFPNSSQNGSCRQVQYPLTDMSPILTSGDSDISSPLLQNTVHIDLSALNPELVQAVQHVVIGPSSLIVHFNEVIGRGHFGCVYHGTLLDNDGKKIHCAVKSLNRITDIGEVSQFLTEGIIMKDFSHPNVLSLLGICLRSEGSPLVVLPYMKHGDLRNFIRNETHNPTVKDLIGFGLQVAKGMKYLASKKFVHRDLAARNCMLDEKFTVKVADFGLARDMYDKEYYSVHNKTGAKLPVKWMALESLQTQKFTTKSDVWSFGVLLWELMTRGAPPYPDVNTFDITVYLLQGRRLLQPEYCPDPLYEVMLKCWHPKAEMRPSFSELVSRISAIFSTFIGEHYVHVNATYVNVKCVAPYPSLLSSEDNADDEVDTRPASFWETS
Chain of FLT3 (P36888 27-993): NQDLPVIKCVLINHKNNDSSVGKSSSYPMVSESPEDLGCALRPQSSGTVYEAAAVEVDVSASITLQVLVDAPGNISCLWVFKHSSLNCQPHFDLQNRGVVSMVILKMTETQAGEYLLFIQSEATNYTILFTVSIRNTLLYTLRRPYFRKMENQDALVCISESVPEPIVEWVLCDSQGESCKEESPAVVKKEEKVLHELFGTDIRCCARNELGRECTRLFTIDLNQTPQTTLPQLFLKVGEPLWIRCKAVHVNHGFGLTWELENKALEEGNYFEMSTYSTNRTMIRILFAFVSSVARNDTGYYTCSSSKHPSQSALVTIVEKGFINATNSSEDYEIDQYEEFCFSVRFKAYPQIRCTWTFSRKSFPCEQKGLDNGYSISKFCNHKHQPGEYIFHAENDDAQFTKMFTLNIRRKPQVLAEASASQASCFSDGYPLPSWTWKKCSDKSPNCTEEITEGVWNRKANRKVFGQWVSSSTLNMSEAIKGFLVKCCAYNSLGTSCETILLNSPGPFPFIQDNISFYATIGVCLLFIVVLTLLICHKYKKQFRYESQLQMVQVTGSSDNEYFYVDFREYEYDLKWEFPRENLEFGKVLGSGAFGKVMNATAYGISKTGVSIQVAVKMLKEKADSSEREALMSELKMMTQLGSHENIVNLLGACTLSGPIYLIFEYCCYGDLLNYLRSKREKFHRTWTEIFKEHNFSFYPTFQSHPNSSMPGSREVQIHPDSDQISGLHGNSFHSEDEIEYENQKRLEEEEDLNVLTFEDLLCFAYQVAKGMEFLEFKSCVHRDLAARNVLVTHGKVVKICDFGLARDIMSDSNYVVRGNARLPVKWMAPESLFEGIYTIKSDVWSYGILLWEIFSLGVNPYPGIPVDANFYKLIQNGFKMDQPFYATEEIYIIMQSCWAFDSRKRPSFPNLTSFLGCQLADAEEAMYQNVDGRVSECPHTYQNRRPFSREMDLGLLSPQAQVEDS
Chain of FGFR2 (P21802 22-821): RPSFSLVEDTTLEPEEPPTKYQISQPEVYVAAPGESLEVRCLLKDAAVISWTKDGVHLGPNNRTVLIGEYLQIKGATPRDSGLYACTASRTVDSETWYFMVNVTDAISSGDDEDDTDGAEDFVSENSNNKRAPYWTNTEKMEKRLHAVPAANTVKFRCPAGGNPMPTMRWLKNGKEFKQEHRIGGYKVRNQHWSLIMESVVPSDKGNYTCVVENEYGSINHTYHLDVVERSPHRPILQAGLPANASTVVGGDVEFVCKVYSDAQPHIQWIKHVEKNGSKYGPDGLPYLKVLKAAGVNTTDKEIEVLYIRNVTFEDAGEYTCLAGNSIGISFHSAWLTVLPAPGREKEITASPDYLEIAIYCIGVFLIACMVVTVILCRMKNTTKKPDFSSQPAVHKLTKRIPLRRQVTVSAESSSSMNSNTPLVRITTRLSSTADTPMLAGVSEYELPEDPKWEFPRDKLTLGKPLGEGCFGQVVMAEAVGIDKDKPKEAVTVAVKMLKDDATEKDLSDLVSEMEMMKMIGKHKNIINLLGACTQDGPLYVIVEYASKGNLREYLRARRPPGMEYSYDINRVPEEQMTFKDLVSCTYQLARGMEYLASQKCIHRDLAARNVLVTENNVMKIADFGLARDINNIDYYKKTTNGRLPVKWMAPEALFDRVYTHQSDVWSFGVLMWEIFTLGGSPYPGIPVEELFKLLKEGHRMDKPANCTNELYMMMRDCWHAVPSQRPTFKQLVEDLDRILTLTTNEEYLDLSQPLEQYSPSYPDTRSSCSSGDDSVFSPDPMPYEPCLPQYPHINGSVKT

As usually defined, the IC50 is the concentration needed to halve the response being measured. Low values mean greater potency in that assay, high ones weaker potency in that assay. `CN1CCN(Cc2cccc(-c3cnc4[nH]cc(-c5cc(CNCCc6ccc(O)cc6)ccc5F)c4c3)c2)CC1` [Compound 1]: the “Percentage inhibition AXL” value on Axl was found to be 95%. In addition, the results for the IC50 (on Axl; in test [1]; against FLT3) were 5.36 nM, 77 nM and 2.5 nM, respectively. Further, the “infection of the VeroE6 cells by the SARS-COV-2 virus” value (“infection of the VeroE6 cells” for short) in test [1] was “prevent the infection”. Besides, the “Percentage inhibition RPS6KA1 (RSX1)” value at RPS6KA1 (RSX1) was found to be 38%. Moreover, the “Percentage inhibition ZAP70” value on ZAP70 came out at 4%. Moreover, the “Percentage inhibition MET (cMet)” value on MET (cMet) came to 15%. The “Percentage inhibition YES1” value at YES1 stood at 18%. For the same molecule, the “Percentage inhibition LCK” value at LCK is given as 50%. For the same molecule, the “Percentage inhibition FGFR2” value on FGFR2 is reported as 58%. Besides, the “active on infectious model SARS-COV-2” value with SARS-COV-2 is on record as “ACTIVE”.

For `CN1CCN(Cc2cccc(-c3cnc4[nH]cc(-c5cc(CNCc6ccccc6)ccc5F)c4c3)c2)CC1` [Compound 2], the “Percentage inhibition AXL” value at Axl was 95%. In addition, the IC50 was 2.36 nM against Axl, 289 nM in test [1] and 2.33 nM on FLT3. Besides, the “infection of the VeroE6 cells” value in test [1] is recorded as “prevent the infection”. Also, the “Percentage inhibition RPS6KA1 (RSX1)” value at RPS6KA1 (RSX1) was determined as 16%. The “Percentage inhibition ZAP70” value at ZAP70 is listed as 4%. The “Percentage inhibition MET (cMet)” value on MET (cMet) was 92%. Further, the “Percentage inhibition YES1” value at YES1 came to 15%. Besides, the “Percentage inhibition LCK” value at LCK came out at 63%. Besides, the “Percentage inhibition FGFR2” value on FGFR2 is 25%. The “active on infectious model SARS-COV-2” value with SARS-COV-2 was “ACTIVE”.

On to `CN1CCN(Cc2cccc(-c3cnc4[nH]cc(-c5cc(NC(=O)Nc6ccccc6)ccc5F)c4c3)c2)CC1` [Compound 3], for which the “Percentage inhibition AXL” value on Axl is recorded as 94%. In addition, the IC50 was determined as 6.3 nM at Axl and 48.2 nM against FLT3. At Axl (from IC50 Axl and IC50 FLT3), the “selectivity with respect to Axl relative to FLT3” value was “shows a selectivity with respect to Axl relative to FLT3”. The “infection of the VeroE6 cells” value in test [1] is given as “prevent the infection”. In addition, at RPS6KA1 (RSX1), the “Percentage inhibition RPS6KA1 (RSX1)” value is on record as 41%. The “Percentage inhibition ZAP70” value on ZAP70 was 5%. Further, the “Percentage inhibition MET (cMet)” value at MET (cMet) is on record as 16%. At YES1, the “Percentage inhibition YES1” value turned out to be 11%. For the same molecule, at LCK, the “Percentage inhibition LCK” value amounted to 42%. The “Percentage inhibition FGFR2” value at FGFR2 was found to be 37%. Also, the “active on infectious model SARS-COV-2” value in the test with SARS-COV-2 is on record as “ACTIVE”.

For the origin of these results see patent US20240293400A1, “NOVEL AZAINDOLE DERIVATIVES AS ANTIVIRAL AGENTS” (Centre National de la Recherche Scientifique, priority 2021, published 2024).
